Molecules are shown by their SMILES. Read-outs that look alike come from different tables or passages of the source.

Data set [1] can be described thus: Acute toxicity test (oral). Details: species or system mouse (ddY-strain). The settings on record: mouse, in vivo, male ddY mice, fasted 20 h, deaths over 7 days. How it is done:
The test compounds of the present invention suspended in 0.5% aqueous solution of carboxymethylcellulose (C.M.C.) were orally administered to groups of 4 to 6 ddY-strain male mice (weighing about 19 g) which had fasted for 20 hours. The lethal dose was determined by the number of deaths for 7 days thereafter.

The next data set deals with Blood Glucose. The data set is described as follows: Hypoglycemic effect in glucose-loaded fasted rats (blood glucose). In kind it is in vivo, rat (Wistar-strain). Particulars: 2 h. On the procedure: Groups of 7 Wistar-strain male rats (weighing about 200 g) which were fasted for 18 hours were used for measurement of hypoglycemic effect according to the modified method by Dulin et al. [Dulin, W. L. et al., Proc. Soc. Expl. Med., 107, 245 (1961)]. That is, 0.5 ml/100 g of 20% aqueous solution of glucose was subcutaneously administered to the backs of rats to prevent a decrease in blood glucose level because of the fasting. Immediately thereafter the test drug suspended in 0.5% aqueous C.M.C. solution was orally given, and 2 hours later, the animals underwent laparotomy under pentobarbital anesthesia, then blood was drawn from the vena cava. The obtained blood sample was allowed to stand for 30 minutes to complete the coagulation and was centrifuged to obtain the serum. Blood sugar level was measured according to the mutalotase GOD method [Trinder, Ann. Clin. Biochem., 6, 24 […]]. Asterisks indicate significant differences (*: p<0.05, **: p<0.01, ***: p<0.001) from the control.

In a further data set the test system is Serum Triglyceride. Description: Hypolipidemic effect: serum triglyceride. The class given is in vivo, rat (Wistar-strain). Particulars: 100 mg/kg oral, 2 h; for Serum Triglyceride Level: control 65 ± 5 (compounds 2-12), 57 ± 4 (compounds 15-29); for inhibition in vivo at 100 mg/kg: Rattus norvegicus, vs control, read-out: Serum Triglyceride Decrease. On the procedure:
(§1) The test drugs suspended in 0.5% aqueous C.M.C. solution were orally administered to groups of 8 Wistar-strain male rats (weighing about 185 g) which were fasted for 18 to 20 hours. 2 hours later, the serum was obtained in the same manner described in (2). Serum triglyceride was measured according to the GPO-p-chlorophenol colorimetric determination [Richard W. Spayd et al., Clinical Chemistry, 24, 1343 (1978)], serum free fatty acid was measured according to the Acyl CoA Synthetase-Acyl CoA Oxidase method [Shimizu S. et al., Biochem. Biophys. Res. Commun., 91, 108 (1979)], free fatty acid was measured according to the enzymatic method [Charles C. Allain et al., Clin. Chem., 20, No. 4, 470 (1974)] and total cholesterol was measured according to the enzymatic method [Takayama M. et al., Clinica Chimica Acta, 79, 93 (1977)]. Asterisks indicate significant differences (*: p<0.05, **: p<00.01, ***: p<0.001) from the control.

The test system of another data set is Serum Free Fatty Acid. The data set is described as follows: Hypolipidemic effect: serum free fatty acid. In kind it is in vivo, rat (Wistar-strain). Particulars: 100 mg/kg oral, 2 h; for Serum Free Fatty Acid Level: control 0.53 ± 0.03 (compounds 2-12), 0.52 ± 0.03 (compounds 15-24); for inhibition in vivo at 100 mg/kg: Rattus norvegicus, vs control, read-out: Serum Free Fatty Acid Decrease. On the procedure: as §1

A further data set relates to Serum Phospholipid. The data set is described as follows: Hypolipidemic effect: serum phospholipid. The settings on record: 100 mg/kg oral, 2 h; for Serum Phospholipid Level: control 79 ± 2 (compounds 2-12), 72 ± 2 (compounds 15-29); for inhibition in vivo at 100 mg/kg: Rattus norvegicus, vs control, read-out: Serum Phospholipid Decrease. The class given is in vivo, rat (Wistar-strain). How it is done:
as §1

The next data set deals with Total Serum Cholesterol. The data set is described as follows: Hypolipidemic effect: total serum cholesterol. Particulars: 100 mg/kg oral, 2 h; for Total Serum Cholesterol Level: control 44 ± 2 (compounds 4-12), 41 ± 1 (compounds 15-29); for inhibition in vivo at 100 mg/kg: Rattus norvegicus, vs control, read-out: Total Serum Cholesterol Decrease. The class given is in vivo, rat (Wistar-strain). How it is done: as §1

The mark [2] stands for this setting: Rattus norvegicus, Table 2, 100 mg/kg oral, vs control, read-out: Blood Glucose Decrease.
Where [3] appears, read: Table 2, 100 mg/kg oral, control 133 ± 6.
Setting [4] is: Rattus norvegicus, Table 3, 100 mg/kg oral, vs control, read-out: Blood Glucose Decrease.
Where [5] appears, read: Table 3, 100 mg/kg oral, control 133 ± 4.

In general, LD50 refers to the dose expected to kill half of the subjects tested. A lower LD50 goes with a more toxic substance. `CN1C(=O)NC(=O)C1=O` [compound 2, 1-methylimidazolidinetrione] yielded an LD50 at 168 h in data set [1] of about 900 mg/kg. Besides, in the data set with Blood Glucose (Rattus norvegicus, Table 2, 12.5 mg/kg oral, vs control, read-out: Blood Glucose Decrease), the inhibition in vivo at 12.5 mg/kg is 18%. Moreover, in the data set with Blood Glucose (Rattus norvegicus, Table 2, 25 mg/kg oral, vs control, read-out: Blood Glucose Decrease), the inhibition in vivo at 25 mg/kg worked out at 25.6%. In addition, the inhibition in vivo at 50 mg/kg in the data set with Blood Glucose (Rattus norvegicus, Table 2, 50 mg/kg oral, vs control, read-out: Blood Glucose Decrease) was 31.6%. Further, the inhibition in vivo at 100 mg/kg is 25.6% in the data set on Blood Glucose (setting [2]), 66.2% in the data set on Serum Triglyceride, 52.8% in the data set on Serum Free Fatty Acid and 25.3% in the data set on Serum Phospholipid. The “Blood Glucose Level” value is 109 ± 5 mg/dL in the data set on Blood Glucose (Table 2, 12.5 mg/kg oral, control 133 ± 6); 99 ± 2 mg/dL in the data set with Blood Glucose (Table 2, 25 mg/kg oral, control 133 ± 6); 91 ± 4 mg/dL with Blood Glucose (Table 2, 50 mg/kg oral, control 133 ± 6); 99 ± 5 mg/dL in the data set with Blood Glucose (setting [3]). Also, the “Serum Triglyceride Level” value in the data set on Serum Triglyceride turned out to be 22 ± 1 mg/dL. The “Serum Free Fatty Acid Level” value with Serum Free Fatty Acid came out at 0.25 ± 0.03 mEq/l. Also, in the data set with Serum Phospholipid, the “Serum Phospholipid Level” value is 59 ± 1 mg/dL.

In turn, `CCN1C(=O)NC(=O)C1=O` [compound 3, 1-ethylimidazolidinetrione] came in with an LD50 at 168 h in data set [1] of about 700 mg/kg. The inhibition in vivo at 100 mg/kg in the data set on Blood Glucose (setting [2]) turned out to be 24.8%. For the same compound, the “Blood Glucose Level” value with Blood Glucose (setting [3]) was 100 ± 2 mg/dL.

Regarding `CN1C(=O)C(=O)N(C)C1=O` [compound 12, 1,3-dimethylimidazolidinetrione], the inhibition in vivo at 100 mg/kg is 15% in the data set on Blood Glucose (setting [2]); 46.2% in the data set with Serum Triglyceride; 30.2% with Serum Free Fatty Acid; 11.4% in the data set on Total Serum Cholesterol; 22.8% with Serum Phospholipid. For the same compound, the “Blood Glucose Level” value in the data set with Blood Glucose (setting [3]) worked out at 115 ± 4 mg/dL. Moreover, the “Serum Triglyceride Level” value in the data set on Serum Triglyceride amounted to 35 ± 3 mg/dL. Further, the “Serum Free Fatty Acid Level” value in the data set with Serum Free Fatty Acid is listed as 0.37 ± 0.03 mEq/l. The “Total Serum Cholesterol Level” value in the data set with Total Serum Cholesterol stood at 39 ± 1 mg/dL. In the data set on Serum Phospholipid, the “Serum Phospholipid Level” value is 61 ± 2 mg/dL.

For `O=C1NC(=O)N(Cc2ccccc2)C1=O` [compound 15, 1-benzylimidazolidinetrione], the LD50 at 168 h in data set [1] was about 1000 mg/kg. In addition, in the data set on Blood Glucose (setting [4]), the inhibition in vivo at 100 mg/kg is 15.8%. Moreover, the “Blood Glucose Level” value with Blood Glucose (setting [5]) turned out to be 112 ± 3 mg/dL. Also, in the data set with Serum Triglyceride, the “Serum Triglyceride Level” value was found to be 30 ± 1 mg/dL and the inhibition in vivo at 100 mg/kg was 47.4%. For the same compound, in the data set with Serum Free Fatty Acid, the “Serum Free Fatty Acid Level” value came out at 0.44 ± 0.02 mEq/l and the inhibition in vivo at 100 mg/kg was determined as 15.4%. Moreover, in the data set with Total Serum Cholesterol, the “Total Serum Cholesterol Level” value is 33 ± 1 mg/dL and the inhibition in vivo at 100 mg/kg was 19.5%. In addition, in the data set with Serum Phospholipid, the “Serum Phospholipid Level” value was determined as 52 ± 1 mg/dL and the inhibition in vivo at 100 mg/kg turned out to be 27.8%.

With `O=C1NC(=O)N(Cc2ccc(F)cc2)C1=O` [compound 18, 1-(4-fluorobenzyl)imidazolidinetrione], the inhibition in vivo at 100 mg/kg with Blood Glucose (setting [4]) came out at 20.3%. Besides, in the data set on Blood Glucose (setting [5]), the “Blood Glucose Level” value was 106 ± 3 mg/dL. Besides, in the data set with Serum Triglyceride, the “Serum Triglyceride Level” value was 30 ± 1 mg/dL and the inhibition in vivo at 100 mg/kg was found to be 47.4%. Besides, in the data set on Serum Free Fatty Acid, the “Serum Free Fatty Acid Level” value worked out at 0.42 ± 0.02 mEq/l and the inhibition in vivo at 100 mg/kg was 19.2%. For the same compound, in the data set on Total Serum Cholesterol, the “Total Serum Cholesterol Level” value was found to be 34 ± 1 mg/dL and the inhibition in vivo at 100 mg/kg was determined as 17.1%. In the data set on Serum Phospholipid, the “Serum Phospholipid Level” value amounted to 56 ± 1 mg/dL and the inhibition in vivo at 100 mg/kg is 22.2%.

In the case of `Cc1ccccc1CN1C(=O)NC(=O)C1=O` [compound 24, 1-(2-methylbenzyl)imidazolidinetrione], the inhibition in vivo at 100 mg/kg in the data set on Blood Glucose (setting [4]) worked out at 12.8%. Moreover, the “Blood Glucose Level” value in the data set with Blood Glucose (setting [5]) amounted to 116 ± 3 mg/dL. In the data set with Serum Triglyceride, the “Serum Triglyceride Level” value worked out at 30 ± 1 mg/dL and the inhibition in vivo at 100 mg/kg came to 47.4%. For the same compound, in the data set on Serum Free Fatty Acid, the “Serum Free Fatty Acid Level” value is given as 0.45 ± 0.01 mEq/l and the inhibition in vivo at 100 mg/kg was 13.5%. For the same compound, in the data set with Total Serum Cholesterol, the “Total Serum Cholesterol Level” value came out at 36 ± 1 mg/dL and the inhibition in vivo at 100 mg/kg amounted to 12.2%. In the data set with Serum Phospholipid, the “Serum Phospholipid Level” value amounted to 56 ± 1 mg/dL and the inhibition in vivo at 100 mg/kg was found to be 22.2%.
